Experimental data published in ChEMBL document CHEMBL1909046, “DrugMatrix in vitro pharmacology data”.

Columns and labels:
[1] = biological target: T1, Alpha-1B adrenergic receptor (Rattus norvegicus, UniProt P15823); test: DRUGMATRIX: Alpha-1B adrenergic receptor radioligand binding (ligand: prazosin); type: cell membranes, Wistar, Liver, Membrane; settings: Not Active = under 50% inhibition at 10 µM
T1 sequence (P15823 whole entry): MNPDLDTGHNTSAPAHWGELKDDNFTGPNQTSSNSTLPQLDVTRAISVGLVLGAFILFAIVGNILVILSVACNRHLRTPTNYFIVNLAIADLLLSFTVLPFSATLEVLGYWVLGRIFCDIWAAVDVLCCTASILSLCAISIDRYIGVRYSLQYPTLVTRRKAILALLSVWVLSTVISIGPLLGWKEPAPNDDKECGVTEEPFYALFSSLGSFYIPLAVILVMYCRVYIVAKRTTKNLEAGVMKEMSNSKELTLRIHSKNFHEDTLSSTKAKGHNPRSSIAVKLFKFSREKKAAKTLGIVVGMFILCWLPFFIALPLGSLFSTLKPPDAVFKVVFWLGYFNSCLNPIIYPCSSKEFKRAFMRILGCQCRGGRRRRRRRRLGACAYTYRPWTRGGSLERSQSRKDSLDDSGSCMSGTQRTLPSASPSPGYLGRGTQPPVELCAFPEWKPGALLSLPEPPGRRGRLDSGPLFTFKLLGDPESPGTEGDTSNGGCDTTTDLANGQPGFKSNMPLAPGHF

[2] = biological target: T2, Alpha-2C adrenergic receptor (Homo sapiens, UniProt P18825); test: DRUGMATRIX: Adrenergic Alpha-2C radioligand binding (ligand: [3H] MK-912); type: cell membranes, Sf9, Membrane; settings: sf9
T2 sequence (P18825 whole entry): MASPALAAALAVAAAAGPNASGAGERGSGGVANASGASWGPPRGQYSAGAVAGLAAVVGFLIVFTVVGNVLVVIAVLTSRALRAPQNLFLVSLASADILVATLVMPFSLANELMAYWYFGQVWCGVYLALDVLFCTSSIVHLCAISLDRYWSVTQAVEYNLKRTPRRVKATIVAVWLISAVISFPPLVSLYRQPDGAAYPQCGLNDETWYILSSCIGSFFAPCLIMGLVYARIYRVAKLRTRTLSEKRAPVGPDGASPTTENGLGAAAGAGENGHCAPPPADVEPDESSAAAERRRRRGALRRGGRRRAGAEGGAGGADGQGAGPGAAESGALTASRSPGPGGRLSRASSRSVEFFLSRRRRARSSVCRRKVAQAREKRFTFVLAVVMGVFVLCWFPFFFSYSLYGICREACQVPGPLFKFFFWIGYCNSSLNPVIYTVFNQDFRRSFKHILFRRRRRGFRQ

Vasopressin V1a receptor = Vasopressin V1a receptor (Homo sapiens, UniProt P37288); type: cell membranes, Membrane; settings: hek293; also: in other assays of this panel Not Active means under 50% inhibition at 10 µM
Sequence of Vasopressin V1a receptor (P37288 whole entry): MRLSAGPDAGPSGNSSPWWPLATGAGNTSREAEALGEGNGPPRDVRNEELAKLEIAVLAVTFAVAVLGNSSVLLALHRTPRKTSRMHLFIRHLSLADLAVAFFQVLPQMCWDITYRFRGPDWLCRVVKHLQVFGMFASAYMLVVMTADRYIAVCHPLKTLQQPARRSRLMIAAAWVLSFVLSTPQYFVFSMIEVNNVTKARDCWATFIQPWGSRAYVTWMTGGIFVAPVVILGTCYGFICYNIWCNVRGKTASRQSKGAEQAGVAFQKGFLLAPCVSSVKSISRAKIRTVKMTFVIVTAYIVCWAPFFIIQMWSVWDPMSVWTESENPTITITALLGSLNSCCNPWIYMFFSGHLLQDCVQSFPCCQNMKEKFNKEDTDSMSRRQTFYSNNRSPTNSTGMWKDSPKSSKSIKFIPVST

[3] = biological target: T3, Neuropeptide Y receptor type 2 (Homo sapiens, UniProt P49146); type: cell membranes, Membrane; settings: kan-ts; also: in other assays of this panel Not Active means under 50% inhibition at 10 µM
T3 sequence (P49146 whole entry): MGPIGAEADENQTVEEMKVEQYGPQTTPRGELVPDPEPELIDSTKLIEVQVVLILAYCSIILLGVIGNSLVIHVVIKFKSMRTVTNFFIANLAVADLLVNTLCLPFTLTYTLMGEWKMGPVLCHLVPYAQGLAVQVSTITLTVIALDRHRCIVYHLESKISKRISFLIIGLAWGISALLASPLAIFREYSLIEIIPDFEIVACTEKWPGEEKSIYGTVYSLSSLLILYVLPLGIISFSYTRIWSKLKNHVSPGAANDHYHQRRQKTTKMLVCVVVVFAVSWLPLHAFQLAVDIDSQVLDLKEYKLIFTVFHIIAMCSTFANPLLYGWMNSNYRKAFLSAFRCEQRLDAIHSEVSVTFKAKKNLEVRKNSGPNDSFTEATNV

[4] = DRUGMATRIX: Phosphodiesterase PDE3 enzyme inhibition (substrate: [3H]cAMP + cAMP); type: tissue-based, Homo sapiens; settings: platelet; Not Active = under 50% inhibition at 10 µM
[5] = biological target: T4, Angiotensin-converting enzyme (Oryctolagus cuniculus, UniProt P12822); test: biochemical; type: tissue-based, Lung;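 also: enzymatic inhibition of angiotensin-converting enzyme measured with FAPGG as the substrate; in other assays of this panel Not Active means under 50% inhibition at 10 µM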
T4 sequence (P12822 whole entry): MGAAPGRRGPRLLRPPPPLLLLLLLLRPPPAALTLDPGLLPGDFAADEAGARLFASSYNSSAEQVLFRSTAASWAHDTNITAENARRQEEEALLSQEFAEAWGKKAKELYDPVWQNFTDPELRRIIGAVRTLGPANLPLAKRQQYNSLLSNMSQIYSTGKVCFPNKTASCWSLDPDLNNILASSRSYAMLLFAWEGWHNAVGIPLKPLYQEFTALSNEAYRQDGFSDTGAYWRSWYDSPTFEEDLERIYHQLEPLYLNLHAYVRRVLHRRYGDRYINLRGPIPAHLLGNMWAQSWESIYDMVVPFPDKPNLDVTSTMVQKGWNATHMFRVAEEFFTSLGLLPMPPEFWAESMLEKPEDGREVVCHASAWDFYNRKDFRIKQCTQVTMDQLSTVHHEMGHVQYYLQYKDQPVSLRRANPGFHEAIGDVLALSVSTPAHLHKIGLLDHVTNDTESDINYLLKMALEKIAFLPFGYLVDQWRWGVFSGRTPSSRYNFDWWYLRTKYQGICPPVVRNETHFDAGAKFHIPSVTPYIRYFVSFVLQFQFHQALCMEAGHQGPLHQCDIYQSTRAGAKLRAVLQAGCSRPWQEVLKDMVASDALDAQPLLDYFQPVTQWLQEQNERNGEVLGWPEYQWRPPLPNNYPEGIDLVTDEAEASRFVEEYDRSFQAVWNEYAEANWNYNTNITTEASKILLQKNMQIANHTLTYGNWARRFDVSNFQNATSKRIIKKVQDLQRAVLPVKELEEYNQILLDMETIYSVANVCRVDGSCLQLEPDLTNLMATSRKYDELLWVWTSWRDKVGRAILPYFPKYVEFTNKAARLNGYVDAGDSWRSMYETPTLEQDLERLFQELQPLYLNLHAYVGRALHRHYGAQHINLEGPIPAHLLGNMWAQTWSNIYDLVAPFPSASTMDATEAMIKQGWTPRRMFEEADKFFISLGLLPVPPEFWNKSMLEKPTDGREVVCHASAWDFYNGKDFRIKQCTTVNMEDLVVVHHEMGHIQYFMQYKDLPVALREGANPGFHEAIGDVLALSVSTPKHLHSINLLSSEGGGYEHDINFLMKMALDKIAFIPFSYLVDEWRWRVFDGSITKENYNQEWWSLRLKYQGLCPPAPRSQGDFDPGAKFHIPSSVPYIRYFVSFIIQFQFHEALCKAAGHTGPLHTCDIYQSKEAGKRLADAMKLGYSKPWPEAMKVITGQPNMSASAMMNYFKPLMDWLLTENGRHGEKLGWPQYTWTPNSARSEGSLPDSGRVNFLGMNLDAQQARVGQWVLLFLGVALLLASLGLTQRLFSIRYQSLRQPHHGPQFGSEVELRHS

[6] = biological target: Protein kinase C alpha type (Homo sapiens, UniProt P17252); type: cell-based; settings: sf9;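 also: inhibition of PKCalpha kinase activity measured in an enzyme assay with histone as the phosphorylation substrate; in other assays of this panel Not Active means under 50% inhibition at 10 µM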
[7] = biological target: 5-hydroxytryptamine receptor 1B (Rattus norvegicus, UniProt P28564); type: cell membranes, Wistar, Cerebral cortex, Membrane; also: in other assays of this panel Not Active means under 50% inhibition at 10 µM
Sequence of 5-hydroxytryptamine receptor 1B (P28564 whole entry): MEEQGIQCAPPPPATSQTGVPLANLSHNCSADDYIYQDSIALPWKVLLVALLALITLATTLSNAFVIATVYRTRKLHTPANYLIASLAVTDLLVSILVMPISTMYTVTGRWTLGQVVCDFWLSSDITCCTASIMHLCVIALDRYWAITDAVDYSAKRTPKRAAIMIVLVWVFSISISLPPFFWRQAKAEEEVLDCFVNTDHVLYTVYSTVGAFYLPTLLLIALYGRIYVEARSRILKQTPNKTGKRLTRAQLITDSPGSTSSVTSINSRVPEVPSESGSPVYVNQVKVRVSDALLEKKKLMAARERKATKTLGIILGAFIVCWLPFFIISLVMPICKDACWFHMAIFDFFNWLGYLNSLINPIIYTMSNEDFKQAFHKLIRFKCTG

CN[C@@H]1[C@@H](O)[C@@H](O[C@@H]2[C@@H](O)[C@H](O[C@H]3OC(CN)=CC[C@H]3N)[C@@H](N)C[C@H]2N)OC[C@]1(C)O [SISOMICIN]
Not Active: IC50 [1] | IC50 [2] | IC50 (Vasopressin V1a receptor) | IC50 [3] | IC50 [4] | Ki [4] | IC50 [5] | IC50 [6] | IC50 [7]

NNc1ccccc1 [PHENYLHYDRAZINE]
Not Active: IC50 [1] | IC50 [2] | IC50 (Vasopressin V1a receptor) | IC50 [3] | IC50 [4] | Ki [4] | IC50 [5] | IC50 [6] | IC50 [7]
